For experiment [1], the system named is ischemic heart models of beagle dogs. As to the kind of experiment: Heart protective (anti-ischemic) activity in ischemic heart models of anesthetized beagle dogs. Conditions: total dose 2 mg/kg infused i.v. over 40 min, 90 min occlusion, 5 h reperfusion. In kind it is in vivo. The method, then: In order to determine whether the compounds of the formula 1 are protective for the ischemic hearts of larger animals, experiments determining the anti-ischemic effects of the compounds on beagle dogs were conducted as follows. The experiments on beagle dogs followed the method of Grover et al.' (G. J. Grover et al., J. Cardiovasc. Pharmacol. 25, 40 (1995)).
After being anesthetized by an intravenous injection of pentobarbital at a dose of 35 mg/kg, male beagle dogs (8-12 kg) were further infused with pentobarbital sodium at a dose of 3-4 mg/kg through the right cephalic vein throughout the experiments, so as to keep the anesthesia constant. […] The heart rate was measured by a tachometer, such as that manufactured by Gould Inc., OH, U.S.A., identified as Biotachometer. In addition, all of the changes occurring during the experiment were continuously recorded through the Gould 2000 chart recorder, manufactured by Gould Inc.
The fifth intercostal space was incised to open the thorax and the LAD was separated from its surrounding tissues. […] The LAD part upstream of the silk ligature was isolated from adjacent tissues and the blood flow was measured quantitatively. […] Using polygraph such as Grass Model 7E, the electrocardiogram was measured and read (Lead II). […]

The test system of the next experiment is A7r5. As to the kind of experiment: Inhibition of A7r5 mediated LDL oxidation (MDA). In kind it is cell-based, rat. Conditions: Rattus norvegicus; for inhibition at 100 µM: 10^-4 M; for inhibition at 10 µM: 10^-5 M; for inhibition at 1 µM: 10^-6 M. The method, then: A7r5 (ATCC CRL-1444, smooth muscles, thoracic aorta, BDIX rat) cells were cultured in 24 well plates, using the medium of DMEM (Dulbecco's modified Eagle's Medium) supplemented with 10% heat-inactivated FBS (fetal bovine serum) and 1% antibiotics. Confluent A7r5 from plates were washed with phosphate-buffered solution, and DMEM with 10% FBS and 1% antibiotics was added in a total volume of 0.5 ml/well. Cells (2 x 10^5 cells/ml) were preincubated without and with either test compounds (10^-6 - 10^-4 M) or Tocopherol (10^-6 - 10^-4 M) at 37 °C for 30 min. Then, A7r5 alone or A7r5 plus H2O2 (10^-7 M) were exposed to LDL (100 ug/ml) for 24 hr.
The inhibitory effect of the test compounds against the lipid peroxidation was evaluated by calculating MDA reduction rate of the test compounds compared with that of the control group same as the above example 5 (2).

Another experiment deals with diabetic rats. Nature of the experiment: Effects on MNCV (motor nerve conduction velocity) in diabetic rats. The format is in vivo. Also on record: MNCV (sec): unit not given here. Conditions: 30 mg/Kg, orally once a day. The procedure:
Diabetes was induced with i.p. (intra peritoneum) injection of streptozocin (65 mg/Kg) in rats, then test compounds dissolved in 2 ml of media (physiological saline: ethanol: tween 80 = 8:1:1), were orally administered once a day. Rats were anesthetized with halothane, then the sciatic nerve was exposed to measure MNCV. The nerve was stimulated at two points. The first stimulus electrode was inserted at proximal end, and second stimulating electrode was inserted at the sciatic notch. The coaxial needle electrode was inserted into interdigital muscle, then the muscle action potential induced by two point stimulation. The conduction velocity was calculated by dividing the distance between two stimulus points by the latency difference. Lipoic acid (100 mg/Kg) was used in comparison with the compound of formula 1 in recovery of impaired MNCV in diabetic rats. The recovery (%) of MNCV was calculated according to the following mathematical formula 4. [Mathematical formula 4] Recovery(%) =(MNCV of treated group - MNCV of diabetic rats)/(MNCV of normal control-MNCV of diabetic rats)x100 [formula]

Where [2] appears, read: A7r5 alone, LDL 100 ug/ml, 24 hr, read-out: % Inhibition LDL.
The mark [3] stands for this setting: A7r5 plus H2O2 (10^-7 M), read-out: % Inhibition LDL + H2O2 (10^-7M).

Here are results for 2 compounds from patent publication EP1228058B1, “BENZOPYRANYL GUANIDINE DERIVATIVES, PROCESS FOR PREPARATION THEREOF, AND PHARMACEUTICAL COMPOSITIONS CONTAINING THEM” (Dongbu Hannong Chemical Co., Ltd., priority 1999, dated 2001).

Structures are written as SMILES. Where two headings read alike, the source gives them in different places.

Take `COC(OC)[C@@]1(C)Oc2ccc([N+](=O)[O-])cc2[C@H](NC(=NC#N)NCc2ccccc2)[C@H]1O` [Example 24, (2S, 3R, 4S)-N''-cyano-N-(6-nitro-3,4-dihydro-3-hydroxy-2-methyl-2-dimethoxymethyl-2H-benzopyran-4-yl)-N'-benzylguanidine]: the “Anti-ischemic Activity (in vivo, dogs) (2 mg/kg/40 i.v.) min,i.v.) IZ/AAR (%)” value in experiment [1] is 28.03%.

As usually defined, the inhibition is the drop in the measured response relative to a control, in per cent. Turning to `COC(OC)[C@@]1(C)Oc2ccc(N)cc2[C@@H](NC(=NC#N)NCc2ccccc2)[C@@H]1O` [Example 40, (2S, 3S, 4R)-N''-cyano-N-(6 - amino-3,4-dihydro-3-hydroxy-2-methyl-2-dimethoxymethyl-2H-benzopyran-4-yl)-N'-benzylguanidine], in the experiment with A7r5 (setting [2]), the inhibition at 100 µM stood at 57.5%, the inhibition at 10 µM came out at 51.4% and the inhibition at 1 µM is 40.9%. Further, in the experiment with A7r5 (setting [3]), the inhibition at 100 µM was determined as 64.3%, the inhibition at 10 µM is 62.5% and the inhibition at 1 µM amounted to 49.7%. The “MNCV (sec)” value in the experiment with diabetic rats (streptozocin diabetic rats) was found to be 47.756. The “Recovery (%)” value with diabetic rats (MNCV, diabetic rats) is 63.0%.
